The text below walks through data of ChEMBL document CHEMBL5357084, “Structure-Guided Discovery of Diverse Cytotoxic Dimeric Xanthones/Chromanones from Penicillium chrysogenum C-7-2-1 and Their Interconversion Properties” (J Nat Prod, 2024).

As usually defined, the IC50 is the concentration needed to halve the response being measured.

In experiment [1] the test system is NCI-H23. The experiment can be described thus: Cytotoxicity against human NCI-H23 cells assessed as inhibition of cell growth measured after 48 hrs by MTT assay. It counts as functional, cell-based. The note with it: NCI-H23, 48 h. On the technique in general: Tetrazolium assays rely on reduction of a dye to a coloured formazan, in cell work by metabolically active cells.

Experiment [2] relates to SW-620. In words: Cytotoxicity against human SW620 cells assessed as inhibition of cell growth measured after 48 hrs by MTT assay. Type of experiment: functional, cell-based. Conditions: sw-620; call rule not given here.
The subject of experiment [3] is NCI-H1299. In words: Cytotoxicity against human NCI-H1299 cells assessed as inhibition of cell growth measured after 48 hrs by MTT assay. The note with it: NCI-H1299, 48 h. It counts as functional, cell-based.
For experiment [4], the system named is Caco-2. In words: Cytotoxicity against human Caco-2 cells assessed as inhibition of cell growth measured after 48 hrs by MTT assay. It counts as functional, cell-based. Conditions: Caco-2, 48 h.
Experiment [5] has as its system A-375. In words: Cytotoxicity against human A-375 cells assessed as inhibition of cell growth measured after 48 hrs by MTT assay. It counts as functional, cell-based. The note with it: A-375, 48 h.
The subject of experiment [6] is BEAS-2B. The experiment can be described thus: Cytotoxicity against human BEAS-2B cells assessed as inhibition of cell growth measured after 48 hrs by MTT assay. The note with it: beas-2b. It counts as functional, cell-based.
Experiment [7] concerns NCI-H23. In words: Cytotoxicity against human NCI-H23 cells […] at 50 uM measured after 48 hrs by MTT assay relative to control. It counts as functional.
Experiment [8] relates to SW-620. The experiment can be described thus: Cytotoxicity against human SW620 cells assessed as inhibition of cell growth at 50 uM measured after 48 hrs by MTT assay relative to control. It counts as functional.
In experiment [9] the test system is NCI-H1299. The experiment can be described thus: Cytotoxicity against human NCI-H1299 cells assessed as inhibition of cell growth at 50 uM measured after 48 hrs by MTT assay relative to control. Type of experiment: functional. Set-up: scale not given: the % may be the effect or the level left.
For experiment [10], the system named is Caco-2. In words: Cytotoxicity against human Caco-2 cells assessed as inhibition of cell growth at 50 uM measured after 48 hrs by MTT assay relative to control. Details: scale not given: the % may be the effect or the level left. Type of experiment: functional.
The subject of experiment [11] is A-375. The experiment can be described thus: Cytotoxicity against human A-375 cells […] at 50 uM measured after 48 hrs by MTT assay relative to control. It counts as functional.
The test system of experiment [12] is BEAS-2B. The experiment can be described thus: Cytotoxicity against human BEAS-2B cells assessed as inhibition of cell growth at 50 uM measured after 48 hrs by MTT assay relative to control. Type of experiment: functional.
Experiment [13] concerns NCI-H23. The experiment can be described thus: Induction of cell cycle arrest in human NCI-H23 cells assessed as accumulation of cells at G1 phase at 5 uM incubated for 24 hrs by PI staining based flow cytometry analysis (reference value: 56.95+/-1.02%). It counts as functional.
In experiment [14] the test system is NCI-H23. In words: Induction of cell cycle arrest in human NCI-H23 cells assessed as accumulation of cells at G1 phase at 10 uM incubated for 24 hrs by PI staining based flow cytometry analysis (reference value: 56.95+/-1.02%). Type of experiment: functional. Background: A flow cytometer gives signals particle by particle.
For experiment [15], the system named is NCI-H23. The experiment can be described thus: Induction of cell cycle arrest in human NCI-H23 cells assessed as accumulation of cells at S phase at 5 uM incubated for 24 hrs by PI staining based flow cytometry analysis (reference value: 15.45+/-1.79%). Type of experiment: functional.
Experiment [16] concerns NCI-H23. In words: Induction of cell cycle arrest in human NCI-H23 cells assessed as accumulation of cells at S phase at 10 uM incubated for 24 hrs by PI staining based flow cytometry analysis (reference value: 15.45+/-1.79%). It counts as functional.
In experiment [17] the test system is NCI-H23. The experiment can be described thus: Induction of cell cycle arrest in human NCI-H23 cells assessed as accumulation of cells at G2/M phase at 5 uM incubated for 24 hrs by PI staining based flow cytometry analysis (reference value: 27.60+/-0.83%). It counts as functional.
In experiment [18] the test system is NCI-H23. The experiment can be described thus: Induction of cell cycle arrest in human NCI-H23 cells assessed as accumulation of cells at G2/M phase at 10 uM incubated for 24 hrs by PI staining based flow cytometry analysis (reference value: 27.60+/-0.83%). It counts as functional.
In experiment [19] the test system is NCI-H23. In words: Induction of cell cycle arrest in human NCI-H23 cells assessed as accumulation of cells at SubG1 phase at 5 to 10 uM incubated for 24 hrs by PI staining based flow cytometry analysis (reference value: 0%). It counts as functional. The note with it: dose 5-10 µM.
Experiment [20] has as its system NCI-H23. In words: Induction of apoptosis in human NCI-H23 cells assessed as apoptosis rate at 5 uM incubated for 24 hrs by annexin V-FITC and propidium iodide staining based flow cytometry analysis (reference value: 6.88+/-2.63%). It counts as functional.
Experiment [21] has as its system NCI-H23. The experiment can be described thus: Induction of apoptosis in human NCI-H23 cells assessed as apoptosis rate at 10 uM incubated for 24 hrs by annexin V-FITC and propidium iodide staining based flow cytometry analysis (reference value: 6.88+/-2.63%). Type of experiment: functional.
Experiment [22] has as its system NCI-H23. In words: Induction of apoptosis in human NCI-H23 cells assessed as apoptosis rate incubated for 24 hrs by annexin V-FITC and propidium iodide staining based flow cytometry analysis. Type of experiment: functional, cell-based. Conditions: dose 5-10 µM.

Structures are written as SMILES.

For the compound `COC(=O)[C@@]12Oc3ccc(-c4ccc(O)c5c4O[C@]4(C(=O)OC)C(=C(O)C[C@H](C)[C@@H]4O)C5=O)c(O)c3C(=O)C1=C(O)C[C@H](C)[C@H]2O`, the IC50 in the experiment on NCI-H23 [1] is 6.4 µM; with SW-620 [2] it was “Not Active”; with NCI-H1299 [3], greater than 50 µM; in the experiment with Caco-2 [4], greater than 50 µM; with A-375 [5] it was greater than 50 µM; in the experiment on BEAS-2B [6] it was “Not Active”. Moreover, the Activity was determined as 7.2% in the experiment with NCI-H23 [7]; 64.9% with NCI-H1299 [9]; 70.2% in the experiment with Caco-2 [10]; 75% in the experiment on A-375 [11]; 46.56% in the experiment on NCI-H23 [13]; 38.68% with NCI-H23 [14]. For the same compound, the Activity is on record as 15% in the experiment with NCI-H23 [15]; 8.85% in the experiment with NCI-H23 [16]; 38.43% in the experiment on NCI-H23 [17]; 52.48% in the experiment on NCI-H23 [18]; 0% in the experiment with NCI-H23 [19]; 45.71% in the experiment on NCI-H23 [20]. Besides, the Activity with NCI-H23 [21] is 60.11%; in the experiment with NCI-H23 [22], “Dose-Dependent Effect”. Besides, the “Cell growth relative to control” value was determined as 98.6% in the experiment with SW-620 [8] and 151.6% with BEAS-2B [12].
